The results in this text go back to US9624200B2, “Therapeutic piperazines” (DART NEUROSCIENCE (CAYMAN) LTD., priority 2006, dated 2017).

Test [1] relates to contextual memory (freezing) in C57BL/6 male mice. Briefly: Contextual Memory Assay: Fear Conditioning. The note with it: for freezing (memory score) 24 hours after training: 2 training trials, vehicle 22.3+3.2%. It counts as in vivo, mouse. The source says: Contextual memory is a form of Pavlovian fear conditioning in which a naive mouse is placed into a novel chamber (context) containing distinct visual, olfactory and tactile cues. After several minutes of acclimation, the mouse receives a brief, mild electric shock to its feet. From this negative experience, the mouse will remember for months that that chamber is dangerous. When placed back into the same context at some later time after training, the mouse's natural response to danger is to “freeze,” sitting stone still for many seconds. This is similar to what happens to humans when they experience fear. The percent of time during an observation period that the mouse spends frozen represents a quantitative measure (memory score) of its memory of the context.
Young-adult (10-12 weeks old) C57BL/6 male mice and Sprague Dawley male rats of 250-300 g (Taconic, N.Y.) were used. Mice were group-housed (5 mice) in standard laboratory cages while rats were housed in pairs and maintained on a 12:12 light-dark cycle. The experiments were always conducted during the light phase of the cycle. With the exception of testing times, the mice had ad lib access to food and water. […]
To assess contextual memory, a modified contextual fear conditioning task originally developed for evaluation of memory in CREB knock-out mice was used (Bourtchouladze, et. aL, Cell, 1994, 79, 59-68). […] 24 hours after training, the mouse was placed into the same training chamber and contextual memory was assessed by scoring freezing behavior (‘freezing’ serves as memory score). […]
All experiments were designed and performed in a balanced fashion, meaning that (i) for each experimental condition (e.g. a specific dose-effect) an equal number of experimental and control mice was used; (ii) each experimental condition was replicated 2-3 independent times, and replicate days were added to generate final number of subjects. […] Data were analyzed by Student's unpaired t test using a software package (Statview 5.0.1; SAS Institute, Inc). All values in the text and figures are expressed as mean+SEM. […]

The subject of test [2] is PDE4 from human U-937 cells. Briefly: PDE4 Inhibition Assay. It counts as biochemical. Particulars: 1 μM cAMP, [3H]-cAMP, read-out: Potency Class (Inhibitory Concentration) in the PDE4 assay. Summed up: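 U-937-derived PDE4 (2 μg/ml) was preincubated with compound in Tris-HCl pH 7.5 for 15 min at 25° C. It then reacted 20 min with cAMP plus [^3H]-cAMP. [^3H]-AMP was converted to [^3H]-adenosine by nucleotidase, resin-separated and counted; IC50 came from percent inhibition.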

Consider `COc1ccc(N2CCN[C@@H](CC3CCCCC3)C2)cc1OC1CCCC1` [Compound 126, (S)-3-Cyclohexylmethyl-1-(3-cyclopentyloxy-4-methoxy-phenyl)-piperazine], for which, in test [1] (0.1 mg/kg injected 20 minutes before training), the “effect on contextual memory” value is “no significant effect”. Besides, the “freezing (memory score) 24 hours after training” value in test [1] (1 mg/kg injected 20 minutes before training, p<0.05) is on record as 32.5+3.2%; in test [1] (10 mg injected 20 minutes before training, p<0.005), 38.3%.
Turning to `CCc1nn(C2CCCC2)c2cc(N3CCN(C(=O)Cc4nc(C)n[nH]4)[C@@H](Cc4ccccc4)C3)ccc12` [Compound 380, (S)-1-(2-benzyl-4-(1-cyclopentyl-3-ethyl-1H-indazol-6-yl)piperazin-1-yl)-2-(3-methyl-1H-1,2,4-triazol-5-yl)ethanone], the IC50 in test [2] is less than 200 nM.
The same measure, in the same setting: the same measure for `COc1ccc(N2CCN(C(=O)Cc3ccncc3)[C@@H](Cc3ccccc3)C2)cc1OC1CCCC1` [Compound 386, (S)-1-(2-benzyl-4-(3-(cyclopentyloxy)-4-methoxyphenyl)piperazin-1-yl)-2-(pyridin-4-yl)ethanone]: more than 1000 nM; for `COc1ccc(N2CCN(C(=O)Cc3nc(N)n[nH]3)[C@@H](Cc3ccccc3)C2)cc1OC(C)C` [Compound 337, (S)-2-(3-amino-1H-1,2,4-triazol-5-yl)-1-(2-benzyl-4-(3-isopropoxy-4-methoxyphenyl)piperazin-1-yl)ethanone]: less than 200 nM; for `COc1ccc(N2CCN(C(=O)Cn3ccnc3C)[C@@H](Cc3ccccc3)C2)cc1OC1CCCC1` [Compound 289, (S)-1-(2-benzyl-4-(3-(cyclopentyloxy)-4-methoxyphenyl)piperazin-1-yl)-2-(2-methyl-1H-imidazol-1-yl)ethanone]: more than 1000 nM.
For the compound `COc1ccc(N2CCN(C(=O)Cc3cncs3)[C@@H](Cc3ccccc3)C2)cc1OC1CCCC1` [Compound 291, (S)-1-(2-benzyl-4-(3-(cyclopentyloxy)-4-methoxyphenyl)piperazin-1-yl)-2-(thiazol-5-yl)ethanone], the IC50 in test [2] lay in the range of 200 to 1000 nM.
Same read-out and setting: the same measure for `COc1ccc(N2CCN(C(=O)Cc3sc(C)nc3C)[C@@H](Cc3ccccc3)C2)cc1OC1CCCC1` [Compound 298, (S)-1-(2-benzyl-4-(3-(cyclopentyloxy)-4-methoxyphenyl)piperazin-1-yl)-2-(2,4-dimethylthiazol-5-yl)ethanone]: more than 1000 nM.
On the same count and under the same terms, the same measure for `COc1ccc(N2CCN(C(=O)c3c[nH]cn3)[C@@H](Cc3ccccc3)C2)cc1OC1CCCC1` [Compound 241, (S)-(2-benzyl-4-(3-(cyclopentyloxy)-4-methoxyphenyl)piperazin-1-yl)(1H-imidazol-4-yl)methanone]: 200 to 1000 nM; for `COc1ccc(N2CCN(C(=O)Cc3n[nH]c(C)n3)[C@@H](CC(C)C)C2)cc1OC(C)C` [Compound 377, (S)-1-(2-isobutyl-4-(3-isopropoxy-4-methoxyphenyl)piperazin-1-yl)-2-(5-methyl-1H-1,2,4-triazol-3-yl)ethanone]: 200 to 1000 nM.
